What is called IC50 is the point on the concentration scale where inhibition reaches its midpoint.

The structures appear in SMILES notation. Where a name gives a salt, the structure may show the parent alone. Read-outs that look alike come from different tables or passages of the source.

In patent publication US9120791B2, “Indolizine compounds, a process for their preparation and pharmaceutical compositions containing them” (LES LABORATOIRES SERVIER, priority 2012, dated 2015) one finds IC50 data, which are given here for 17 compounds.

The target of one experiment is Bcl-2 protein (Homo sapiens (Human), UniProt P10415). Kind of experiment: Inhibition of Bcl-2 by the fluorescence polarisation technique. Type of experiment: binding. The conditions noted are these: fluorescence polarisation test; concentration that inhibits fluorescence polarisation by 50%; read-out: IC50 (nM) Bcl-2 FP. Here is the method: The fluorescence polarisation tests were carried out on microplates (384 wells). […] After incubation for 2 hours, the fluorescence polarisation is measured.
Chain of Bcl-2 protein (P10415 whole entry): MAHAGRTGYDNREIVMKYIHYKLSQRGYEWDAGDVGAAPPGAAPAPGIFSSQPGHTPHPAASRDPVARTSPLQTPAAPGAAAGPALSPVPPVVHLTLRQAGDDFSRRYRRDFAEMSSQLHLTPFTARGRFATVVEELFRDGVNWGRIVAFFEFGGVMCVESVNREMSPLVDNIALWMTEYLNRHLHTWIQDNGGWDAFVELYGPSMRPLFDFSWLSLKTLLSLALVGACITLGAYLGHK
On the technique in general: Polarisation of emitted light reports the rotation of a fluorescent probe.

Experiment [1] relates to RS4;11 leukaemia tumour line. As to the kind of experiment: In vitro cytotoxicity (Microculture Tetrazolium Assay, 48 hours). Type of experiment: cell-based. The note with it: RS4;11 cells, 48 hours exposure, MTT, concentration that inhibits cell viability by 50%, read-out: IC50 (nM) MTT RS4. The protocol:
The cytotoxicity studies were carried out on the RS4;11 leukaemia tumour line.
The cells are distributed onto microplates and exposed to the test compounds for 48 hours.

With `C[C@H]1COC[C@H](C)N1C[C@@H]1Cc2ccccc2CN1C(=O)c1cc2c(cc1-c1cc(C(=O)N(c3ccc(O)cc3)c3ccc4c(ccn4C)c3)c3n1CCCC3)OCO2` [Example 17, 3-{6-[((3S)-3-{[(3S,5S)-3,5-Dimethylmorpholinyl]methyl}-3,4-dihydro-2(1H)-isoquinolinyl)carbonyl]-1,3-benzodioxol-5-yl}-N-(4-hydroxyphenyl)-N-(1-methyl-1H-indol-5-yl)-5,6,7,8-tetrahydro-1-indolizine carboxamide hydrochloride], the IC50 came out at 81 nM on Bcl-2 protein and 120 nM in experiment [1].

Take `Cn1ccc2cc(N(C(=O)c3cc(-c4cc(Br)ccc4C(=O)N4Cc5ccccc5C[C@H]4CN4CCOCC4)n4c3CCCC4)c3ccc(O)cc3)ccc21` [Example 18, 3-{5-Bromo-2-[((3S)-3-(4-morpholinylmethyl)-3,4-dihydro-2(1H)-isoquinolinyl)carbonyl]phenyl}-N-(4-hydroxyphenyl)-N-(1-methyl-1H-indol-5-yl)-5,6,7,8-tetrahydro-1-indolizine carboxamide hydrochloride]: the figures for the IC50 (at Bcl-2 protein; in experiment [1] (Homo sapiens)) were 32 nM and 24.9 nM, respectively.

`CN1CCc2cc(N(C(=O)c3cc(-c4cc(Br)ccc4C(=O)N4Cc5ccccc5C[C@H]4CN4CCOCC4)n4c3CCCC4)c3ccc(O)cc3)ccc21` [Example 19, 3-{5-Bromo-2-[((3S)-3-(4-morpholinylmethyl)-3,4-dihydro-2(1H)-isoquinolinyl)carbonyl]phenyl}-N-(4-hydroxyphenyl)-N-(1-methyl-2,3-dihydro-1H-indol-5-yl)-5,6,7,8-tetrahydro-1-indolizine carboxamide hydrochloride]: the IC50 at Bcl-2 protein stood at 27 nM; in experiment [1] (Homo sapiens), 42.3 nM.

With `O=C(c1cc(-c2cc(Cl)ccc2C(=O)N2Cc3ccccc3C[C@H]2CN2CCOCC2)n2c1CCCC2)N(c1ccccc1)c1ccc(O)cc1` [Example 20, 3-{5-Chloro-2-[((3S)-3-(4-morpholinylmethyl)-3,4-dihydro-2(1H)-isoquinolinyl)carbonyl]phenyl}-N-(4-hydroxyphenyl)-N-phenyl-5,6,7,8-tetrahydro-1-indolizine carboxamide hydrochloride], the IC50 was determined as 35 nM on Bcl-2 protein and 105 nM in experiment [1] (Homo sapiens).

Turning to `O=C(c1cc(-c2cc(Cl)ccc2C(=O)N2Cc3ccccc3C[C@H]2CN2CCOCC2)n2c1CCCC2)N(c1ccc(O)cc1)c1ccc2c(c1)CCN2` [Example 21, 3-{5-Chloro-2-[((3S)-3-(4-morpholinylmethyl)-3,4-dihydro-2(1H)-isoquinolinyl)carbonyl]phenyl}-N-(2,3-dihydro-1H-indol-5-yl)-N-(4-hydroxyphenyl)-5,6,7,8-tetrahydro-1-indolizine carboxamide bis(hydrochloride)], the values for the IC50 (at Bcl-2 protein; in experiment [1] (Homo sapiens)) were 22 nM and 34.6 nM, respectively.

On to `Cn1ccc2cc(N(C(=O)c3cc(-c4cc(F)ccc4C(=O)N4Cc5ccccc5C[C@H]4CN4CCOCC4)n4c3CCCC4)c3ccc(O)cc3)ccc21` [Example 24, 3-{5-Fluoro-2-[((3S)-3-(4-morpholinylmethyl)-3,4-dihydro-2(1H)-isoquinolinyl)carbonyl]phenyl}-N-(4-hydroxyphenyl)-N-(1-methyl-1H-indol-5-yl)-5,6,7,8-tetrahydro-1-indolizine carboxamide hydrochloride], for which the IC50 on Bcl-2 protein is 17 nM; in experiment [1] (Homo sapiens), 29.8 nM.

For the compound `O=C(c1cc(-c2cc(F)ccc2C(=O)N2Cc3ccccc3C[C@H]2CN2CCOCC2)n2c1CCCC2)N(c1ccccc1)c1ccc(O)cc1` [Example 25, 3-{5-Fluoro-2-[((3S)-3-(4-morpholinylmethyl)-3,4-dihydro-2(1H)-isoquinolinyl)carbonyl]phenyl}-N-(4-hydroxyphenyl)-N-phenyl-5,6,7,8-tetrahydro-1-indolizine carboxamide hydrochloride], the IC50 at Bcl-2 protein was 29 nM; in experiment [1] (Homo sapiens), 143 nM.

Take `CN1CCCc2cc(N(C(=O)c3cc(-c4cc(Cl)ccc4C(=O)N4Cc5ccccc5C[C@H]4CN4CCOCC4)n4c3CCCC4)c3ccc(O)cc3)ccc21` [Example 26, 3-{5-Chloro-2-[((3S)-3-(4-morpholinylmethyl)-3,4-dihydro-2(1H)-isoquinolinyl)carbonyl]phenyl}-N-(4-hydroxyphenyl)-N-(1-methyl-1,2,3,4-tetrahydro-6-quinolinyl)-5,6,7,8-tetrahydro-1-indolizine carboxamide hydrochloride]: the IC50 amounted to 17 nM on Bcl-2 protein and 40 nM in experiment [1] (Homo sapiens).

Take `CN1CCOc2cc(N(C(=O)c3cc(-c4cc(Cl)ccc4C(=O)N4Cc5ccccc5C[C@H]4CN4CCOCC4)n4c3CCCC4)c3ccc(O)cc3)ccc21` [Example 27, 3-{5-Chloro-2-[((3S)-3-(4-morpholinylmethyl)-3,4-dihydro-2(1H)-isoquinolinyl)carbonyl]phenyl}-N-(4-hydroxyphenyl)-N-(4-methyl-3,4-dihydro-2H-1,4-benzoxazin-7-yl)-5,6,7,8-tetrahydro-1-indolizine carboxamide hydrochloride]: the IC50 on Bcl-2 protein came out at 17 nM; in experiment [1] (Homo sapiens), 35.4 nM.

Take `CCN(CC)c1ccc(N(C(=O)c2cc(-c3cc(Cl)ccc3C(=O)N3Cc4ccccc4C[C@H]3CN3CCOCC3)n3c2CCCC3)c2ccc(O)cc2)cc1` [Example 28, 3-{5-Chloro-2-[((3S)-3-(4-morpholinylmethyl)-3,4-dihydro-2(1H)-isoquinolinyl)carbonyl]phenyl}-N-[4-(diethylamino)phenyl]-N-(4-hydroxyphenyl)-5,6,7,8-tetrahydro-1-indolizine carboxamide hydrochloride]: the values for the IC50 (on Bcl-2 protein; in experiment [1] (Homo sapiens)) were 25 nM and 76.1 nM, respectively.

For `O=C(c1cc(-c2cc(Cl)ccc2C(=O)N2Cc3ccccc3C[C@H]2CN2CCOCC2)n2c1CCCC2)N(c1ccc(O)cc1)c1ccc2c(c1)CCC2` [Example 29, 3-{5-Chloro-2-[((3S)-3-(4-morpholinylmethyl)-3,4-dihydro-2(1H)-isoquinolinyl)carbonyl]phenyl}-N-(2,3-dihydro-1H-inden-5-yl)-N-(4-hydroxyphenyl)-5,6,7,8-tetrahydro-1-indolizine carboxamide hydrochloride], the results for the IC50 (at Bcl-2 protein; in experiment [1] (Homo sapiens)) were 35 nM and 85.5 nM, respectively.

`CN1CCN(C[C@@H]2Cc3ccccc3CN2C(=O)c2ccc(Cl)cc2-c2cc(C(=O)N(c3ccc(O)cc3)c3ccc4c(ccn4C)c3)c3n2CCCC3)CC1` [Example 30, 3-{5-Chloro-2-[((3S)-3-[(4-methyl-1-piperazinyl)methyl]-3,4-dihydro-2(1H)-isoquinolinyl)carbonyl]phenyl}-N-(4-hydroxyphenyl)-N-(1-methyl-1H-indol-5-yl)-5,6,7,8-tetrahydro-1-indolizine carboxamide bis(hydrochloride)]: the IC50 at Bcl-2 protein stood at 13 nM; in experiment [1] (Homo sapiens) it was 8.59 nM.

Take `O=C(c1cc(-c2cc3c(cc2C(=O)N2Cc4ccccc4C[C@H]2CN2CCOCC2)OCCCO3)n2c1CCCC2)N(c1ccccc1)c1ccc(O)cc1` [Example 31, N-(4-Hydroxyphenyl)-3-{8-[((3S)-3-(4-morpholinylmethyl)-3,4-dihydro-2(1H)-isoquinolinyl)carbonyl]-3,4-dihydro-2H-1,5-benzodioxepin-7-yl}-N-phenyl-5,6,7,8-tetrahydro-1-indolizine carboxamide hydrochloride]: the values for the IC50 (on Bcl-2 protein; in experiment [1] (Homo sapiens)) were 33 nM and 340 nM, respectively.

In the case of `Cn1ccc2cc(N(C(=O)c3cc(-c4cc5c(cc4C(=O)N4Cc6ccccc6C[C@H]4CN4CCOCC4)OCCCO5)n4c3CCCC4)c3ccc(O)cc3)ccc21` [Example 32, N-(4-Hydroxyphenyl)-N-(1-methyl-1H-indol-5-yl)-3-{8-[((3S)-3-(4-morpholinylmethyl)-3,4-dihydro-2(1H)-isoquinolinyl)carbonyl]-3,4-dihydro-2H-1,5-benzodioxepin-7-yl}-5,6,7,8-tetrahydro-1-indolizine carboxamide hydrochloride], the IC50 on Bcl-2 protein amounted to 34 nM; in experiment [1] (Homo sapiens), 71.3 nM.

In the case of `COc1ccc(C(=O)N2Cc3ccccc3C[C@H]2CN2CCOCC2)c(-c2cc(C(=O)N(c3ccc(O)cc3)c3ccc4c(ccn4C)c3)c3n2CCCC3)c1` [Example 33, N-(4-Hydroxyphenyl)-3-{5-methoxy-2-[((3S)-3-(4-morpholinylmethyl)-3,4-dihydro-2(1H)-isoquinolinyl)carbonyl]phenyl}-N-(1-methyl-1H-indol-5-yl)-5,6,7,8-tetrahydro-1-indolizine carboxamide hydrochloride], the IC50 at Bcl-2 protein amounted to 23 nM; in experiment [1] (Homo sapiens) it was 12.2 nM.

In the case of `O=C(c1cc(-c2cc3c(cc2C(=O)N2Cc4ccccc4C[C@H]2CN2CCOCC2)OCCO3)n2c1CCCC2)N(c1ccccc1)c1ccc(O)cc1` [Example 34, N-(4-Hydroxyphenyl)-3-{7-[((3S)-3-(4-morpholinylmethyl)-3,4-dihydro-2(1H)-isoquinolinyl)carbonyl]-2,3-dihydro-1,4-benzdioxin-6-yl}-N-phenyl-5,6,7,8-tetrahydro-1-indolizine carboxamide hydrochloride], the concentration for half-maximal inhibition (IC50) at Bcl-2 protein was 27 nM; in experiment [1] (Homo sapiens) it was 65.8 nM.

For `Cn1ccc2cc(N(C(=O)c3cc(-c4cc5c(cc4C(=O)N4Cc6ccccc6C[C@H]4CN4CCOCC4)OCCO5)n4c3CCCC4)c3ccc(O)cc3)ccc21` [Example 35, N-(4-Hydroxyphenyl)-N-(1-methyl-1H-indol-5-yl)-3-{7-[((3S)-3-(4-morpholinylmethyl)-3,4-dihydro-2(1H)-isoquinolinyl)carbonyl]-2,3-dihydro-1,4-benzodioxin-6-yl}-5,6,7,8-tetrahydro-1-indolizine carboxamide], the IC50 was found to be 15 nM on Bcl-2 protein and 11.7 nM in experiment [1] (Homo sapiens).
